Reference: PubChem BioAssay (NCI)
Values joined by “and” are separate entries in the source; they are usually repeats but may differ in a detail not shown here. Equal entries are not always repeated.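 Step 1: Grow cells in 96-well plates. Step 2: Expose to compound for 48 hours at 5 concentrations. Step 3: Interpolate endpoints linearly; if unreached, use highest concentration. GI50 marks 50% less growth. TGI: total growth inhibition.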

Tests used:
Test in all cases: inhibition of tumour cell growth, NCI panel, 48 h
NCI-H226 lung = system: NCI-H226 lung
MOLT-4 leukemia = system: MOLT-4 leukemia
HCT-116 colon = system: HCT-116 colon
LOX IMVI melanoma = system: LOX IMVI melanoma
OVCAR-5 ovarian = system: OVCAR-5 ovarian
BT-549 breast = system: BT-549 breast
PC-3 prostate = system: PC-3 prostate
OVCAR-8 ovarian = system: OVCAR-8 ovarian
SNB-19 CNS = system: SNB-19 CNS
EKVX NSCLC = system: EKVX NSCLC

Row | SMILES | GI50 (NCI-H226 lung) | TGI (NCI-H226 lung) | GI50 (MOLT-4 leukemia) | TGI (MOLT-4 leukemia) | GI50 (HCT-116 colon) | TGI (HCT-116 colon) | GI50 (LOX IMVI melanoma) | TGI (LOX IMVI melanoma) | GI50 (OVCAR-5 ovarian) | TGI (OVCAR-5 ovarian) | GI50 (BT-549 breast) | TGI (BT-549 breast) | GI50 (PC-3 prostate) | TGI (PC-3 prostate) | GI50 (OVCAR-8 ovarian) | TGI (OVCAR-8 ovarian) | GI50 (SNB-19 CNS) | TGI (SNB-19 CNS) | GI50 (EKVX NSCLC) | TGI (EKVX NSCLC)
1 | Cc1[nH]ncc1-c1cc2nc(C3CC4CCN3CC4)[nH]c(=O)c2s1 (stereo not given) | 2.82 µM | > 100 µM | 5.52 µM | > 100 µM | 1.16 µM | > 100 µM | 1.46 µM | 21.1 µM | 3.33 µM | > 100 µM | 2.59 µM | 29.6 µM | 4.13 µM | > 100 µM | 3.2 µM | > 100 µM | 4.78 µM | > 100 µM | 4.3 µM | 90.2 µM
2 | C=C1C(=O)O[C@H]2[C@H]1CC/C(CNC(=O)/C=C/c1ccc(Br)cc1)=C\CC[C@@]1(C)O[C@@H]21 | 2.24 µM | 7.15 µM | 0.678 µM | 4.25 µM | 0.667 µM | 1.95 µM | 0.594 µM | 1.86 µM | 1.7 µM | 3.75 µM | 1.14 µM | 2.95 µM | 1.47 µM | 3.24 µM | 1.67 µM | 5.75 µM | 1.61 µM | 4.6 µM | 1.46 µM | 2.91 µM
3 | C(=Nc1ccccc1)C1CCCC[N-]1.C(=Nc1ccccc1)C1CCCC[N-]1.[Cu+2].[O-][Cl+3]([O-])([O-])O (stereo not given) | 21.6 µM | 50 µM | 4.16 µM | 11.7 µM | 7.3 µM | 28.8 µM | 0.0132 µM | 11.8 µM | 14.8 µM | 31.6 µM | 18.5 µM | 55.8 µM | 12.3 µM | 34.2 µM | > 39.7 µM | > 95.2 µM | 9.94 µM | 38.4 µM | 19 µM | 58.1 µM
4 | O=[As](O)(O)c1ccc(NCc2ccccc2)cc1 |  | > 100 µM |  | > 100 µM |  | > 100 µM |  | > 100 µM |  | > 100 µM |  | > 100 µM |  | > 100 µM |  | > 100 µM |  | > 100 µM |  | > 100 µM
5 | CN1C(=O)c2c(ccc3c2OCO3)C2C(O)Cc3cc4c(cc3C21)OCO4 (stereo not given) |  | 5.93 µM |  | 20 µM |  | > 100 µM |  | > 100 µM |  | > 100 µM |  | > 100 µM |  | > 100 µM |  | 22.9 µM |  | > 100 µM |  | 60.9 µM
6 | COc1cc2c(/C=N\N=C(N)N)c(Cl)[nH]c2cc1C | 10.5 µM | 26.3 µM | 2.82 µM | 7.41 µM | 10.2 µM | 21.9 µM | 11.4 µM | 25.3 µM | 15.2 µM | 29 µM | 13.2 µM | 27.8 µM | 6.54 µM | 19.5 µM | 15.4 µM | 38.6 µM | 12.7 µM | 29.2 µM | 16.9 µM | 34.5 µM
7 | COc1ccc(-c2[nH]ncc2-c2cc3c(c(OC)c2)OCC(=O)N3)cc1 | 1.66 µM | 41.5 µM | 0.528 µM | > 34.6 µM | 0.403 µM | > 100 µM | 0.522 µM | > 100 µM | 2.17 µM | > 100 µM | 0.469 µM | 41.5 µM | 0.538 µM | > 100 µM | 1.17 µM | > 50.1 µM | 0.619 µM | > 100 µM | 0.675 µM | > 33.7 µM
8 | O=C(O)CSCc1cccc2ccccc12 |  | > 100 µM |  | > 100 µM |  | > 100 µM |  | > 100 µM |  | > 100 µM |  | > 100 µM |  | > 100 µM |  | > 100 µM |  | > 100 µM |  | > 100 µM
9 | CNC(=O)c1cc(COc2nnc(Nc3ccc(Cl)cc3)c3ccoc23)ccn1 | 3.01 µM and 8.73 µM | 13.1 µM and > 10 µM | 22.6 µM and > 10 µM | > 81.3 µM | 3.32 µM and > 10 µM | 11.3 µM and > 10 µM | 6.41 µM and > 10 µM | 25.1 µM and > 10 µM | 12.3 µM and > 10 µM | 38.9 µM and > 10 µM | 3.53 µM and > 10 µM | 16.6 µM and > 10 µM | 9.39 µM and > 10 µM | > 57.7 µM | 3.66 µM and 5.78 µM | 17.1 µM and > 10 µM | 2.88 µM and > 10 µM | 21.4 µM and > 10 µM | 10.6 µM and > 10 µM | 28.3 µM and > 10 µM
10 | Cc1ccccc1NC(=S)Nc1ccccn1 | > 100 µM | > 100 µM | > 100 µM | > 100 µM | > 100 µM | > 100 µM | > 100 µM | > 100 µM | > 100 µM | > 100 µM | > 100 µM | > 100 µM | > 100 µM | > 100 µM | > 100 µM | > 100 µM | > 100 µM | > 100 µM | 49 µM | > 100 µM
11 | CCSc1nnc2c(-c3ccccc3)n[nH]c2n1 |  | > 100 µM |  | > 100 µM |  | > 100 µM |  | > 100 µM |  | > 100 µM |  | > 100 µM |  | > 100 µM |  | > 100 µM |  | > 100 µM |  | > 100 µM
